Test results published in ChEMBL document CHEMBL3352057, “Novel fluorinated pyrrolo[1,2-a]pyrazine-2,6-dione derivatives: synthesis and anticonvulsant evaluation in animal models of epilepsy” (Bioorg Med Chem, 2014).
Active and inactive are the calls of the source. No cut-off for these calls is given here.

Key:
[1] = tested on: Rattus norvegicus; test: Anticonvulsant activity in ip dosed Sprague-Dawley rat assessed as protection against maximal electroshock-induced seizures measured as time to peak effect; type: functional
[2] = Protective index, ratio of TD50 for neurotoxicity in ip dosed Sprague-Dawley rat to ED50 for anticonvulsant activity in ip dosed MES Sprague-Dawley rat model; type: toxicity, organism-based; details: in vivo, read-out: Ratio TD50/ED50
[3] = tested on: Rattus norvegicus; test: Anticonvulsant activity in ip dosed Sprague-Dawley rat assessed as protection against subcutaneous metrazol-induced seizures; type: functional
[4] = Neurotoxicity in ip dosed Sprague-Dawley rat; type: toxicity, organism-based; details: in vivo
[5] = tested on: Rattus norvegicus; test: Anticonvulsant activity in ip dosed Sprague-Dawley rat assessed as protection against maximal electroshock-induced seizures; type: functional
[6] = tested on: Mus musculus; test: Anticonvulsant activity in ip dosed albino CF1 mouse assessed as protection against maximal electroshock-induced seizures measured as time to peak effect; type: functional
[7] = Neurotoxicity in ip dosed albino CF1 mouse; type: toxicity, organism-based; details: in vivo
[8] = tested on: Mus musculus; test: Anticonvulsant activity in ip dosed albino CF1 mouse assessed as protection against maximal electroshock-induced seizures; type: functional
[9] = tested on: Mus musculus; test: Anticonvulsant activity in ip dosed albino CF1 mouse assessed as protection against subcutaneous metrazol-induced seizures; type: functional
[10] = tested on: Mus musculus; test: Neurotoxicity in albino CF1 mouse at 100 mg/kg, ip measured after 0.5 hr; type: toxicity, organism-based; design: dose 100 mg/kg, route intraperitoneal; details: in vivo
[11] = tested on: Rattus norvegicus; test: Neurotoxicity in MES Sprague-Dawley rat model at 30 mg/kg, ip measured after 0.25 hr; type: toxicity, organism-based; design: dose 30 mg/kg, route intraperitoneal; details: in vivo
[12] = tested on: Rattus norvegicus; test: Anticonvulsant activity in Sprague-Dawley rat assessed as protection against maximal electroshock-induced seizures at 30 mg/kg, ip measured after 0.25 hr; type: functional, organism-based; design: dose 30 mg/kg
[13] = tested on: Rattus norvegicus; test: Neurotoxicity in MES Sprague-Dawley rat model at 30 mg/kg, ip measured after 2 hrs; type: toxicity, organism-based; design: dose 30 mg/kg, route intraperitoneal; details: in vivo
[14] = tested on: Rattus norvegicus; test: Anticonvulsant activity in Sprague-Dawley rat assessed as protection against maximal electroshock-induced seizures at 30 mg/kg, ip measured after 0.5 hr; type: functional, organism-based; design: dose 30 mg/kg
[15] = tested on: Rattus norvegicus; test: Anticonvulsant activity in Sprague-Dawley rat assessed as protection against maximal electroshock-induced seizures at 30 mg/kg, ip measured after 4 hrs; type: functional, organism-based; design: dose 30 mg/kg
[16] = tested on: Rattus norvegicus; test: Neurotoxicity in MES Sprague-Dawley rat model at 30 mg/kg, po measured after 4 hrs; type: toxicity, organism-based; design: dose 30 mg/kg, route oral; details: in vivo
[17] = tested on: Mus musculus; test: Anticonvulsant activity in albino CF1 mouse assessed as protection against maximal electroshock-induced seizures at 100 mg/kg, ip measured after 4 hrs; type: functional, organism-based; design: dose 100 mg/kg
[18] = tested on: Mus musculus; test: Anticonvulsant activity in albino CF1 mouse assessed as protection against 32 mA current-induced seizures at 100 mg/kg, ip measured after 0.5 hr; type: functional, organism-based; design: dose 100 mg/kg
[19] = tested on: Rattus norvegicus; test: Neurotoxicity in MES Sprague-Dawley rat model at 30 mg/kg, po measured after 0.5 hr; type: toxicity, organism-based; design: dose 30 mg/kg, route oral; details: in vivo
[20] = tested on: Rattus norvegicus; test: Neurotoxicity in MES Sprague-Dawley rat model at 30 mg/kg, ip measured after 4 hrs; type: toxicity, organism-based; design: dose 30 mg/kg, route intraperitoneal; details: in vivo
[21] = tested on: Mus musculus; test: Neurotoxicity in albino CF1 mouse at 100 mg/kg, ip measured after 4 hrs; type: toxicity, organism-based; design: dose 100 mg/kg, route intraperitoneal; details: in vivo
[22] = tested on: Rattus norvegicus; test: Anticonvulsant activity in Sprague-Dawley rat assessed as protection against maximal electroshock-induced seizures at 30 mg/kg, po measured after 4 hrs; type: functional, organism-based; design: dose 30 mg/kg
[23] = tested on: Rattus norvegicus; test: Neurotoxicity in MES Sprague-Dawley rat model at 30 mg/kg, ip measured after 1 hr; type: toxicity, organism-based; design: dose 30 mg/kg, route intraperitoneal; details: in vivo
[24] = tested on: Rattus norvegicus; test: Anticonvulsant activity in Sprague-Dawley rat assessed as protection against maximal electroshock-induced seizures at 30 mg/kg, ip measured after 2 hrs; type: functional, organism-based; design: dose 30 mg/kg
[25] = tested on: Mus musculus; test: Neurotoxicity in 32 mA current-induced seizure albino CF1 mouse model at 100 mg/kg, ip measured after 0.5 hr; type: toxicity, organism-based; design: dose 100 mg/kg, route intraperitoneal; details: in vivo
[26] = tested on: Mus musculus; test: Anticonvulsant activity in albino CF1 mouse assessed as protection against maximal electroshock-induced seizures at 100 mg/kg, ip measured after 0.5 hr; type: functional, organism-based; design: dose 100 mg/kg
[27] = tested on: Rattus norvegicus; test: Neurotoxicity in MES Sprague-Dawley rat model at 30 mg/kg, po measured after 1 hr; type: toxicity, organism-based; design: dose 30 mg/kg, route oral; details: in vivo
[28] = tested on: Mus musculus; test: Anticonvulsant activity in albino CF1 mouse assessed as protection against 32 mA current-induced seizures at 100 mg/kg, ip measured after 2 hrs; type: functional, organism-based; design: dose 100 mg/kg
[29] = tested on: Rattus norvegicus; test: Anticonvulsant activity in Sprague-Dawley rat assessed as protection against maximal electroshock-induced seizures at 30 mg/kg, ip measured after 1 hr; type: functional, organism-based; design: dose 30 mg/kg
[30] = tested on: Rattus norvegicus; test: Anticonvulsant activity in Sprague-Dawley rat assessed as protection against maximal electroshock-induced seizures at 30 mg/kg, po measured after 1 hr; type: functional, organism-based; design: dose 30 mg/kg
[31] = tested on: Rattus norvegicus; test: Anticonvulsant activity in Sprague-Dawley rat assessed as protection against maximal electroshock-induced seizures at 30 mg/kg, po measured after 0.25 hr; type: functional, organism-based; design: dose 30 mg/kg
[32] = tested on: Rattus norvegicus; test: Neurotoxicity in MES Sprague-Dawley rat model at 30 mg/kg, po measured after 0.25 hr; type: toxicity, organism-based; design: dose 30 mg/kg, route oral; details: in vivo
[33] = tested on: Rattus norvegicus; test: Anticonvulsant activity in Sprague-Dawley rat assessed as protection against maximal electroshock-induced seizures at 30 mg/kg, po measured after 0.5 hr; type: functional, organism-based; design: dose 30 mg/kg
[34] = tested on: Rattus norvegicus; test: Neurotoxicity in MES Sprague-Dawley rat model at 30 mg/kg, ip measured after 0.5 hr; type: toxicity, organism-based; design: dose 30 mg/kg, route intraperitoneal; details: in vivo
[35] = tested on: Mus musculus; test: Neurotoxicity in 32 mA current-induced seizure albino CF1 mouse model at 100 mg/kg, ip measured after 2 hrs; type: toxicity, organism-based; design: dose 100 mg/kg, route intraperitoneal; details: in vivo
[36] = tested on: Rattus norvegicus; test: Neurotoxicity in MES Sprague-Dawley rat model at 30 mg/kg, po measured after 2 hrs; type: toxicity, organism-based; design: dose 30 mg/kg, route oral; details: in vivo
[37] = tested on: Rattus norvegicus; test: Anticonvulsant activity in Sprague-Dawley rat assessed as protection against maximal electroshock-induced seizures at 30 mg/kg, po measured after 2 hrs; type: functional, organism-based; design: dose 30 mg/kg

O=C1NC(=O)C(c2ccccc2)(c2ccccc2)N1 [PHENYTOIN]
Time [1]: 0.25 h
selectivity ratio [2]: 6.4
ED50 [3]: > 430 µmol/kg
TD50 [4]: 66 µmol/kg
ED50 [5]: 10 µmol/kg

CCC1(c2ccccc2)C(=O)NC(=O)NC1=O [PHENOBARBITAL]
Time [6]: 1 h
TD50 [7]: 297 µmol/kg
ED50 [8]: 94 µmol/kg
ED50 [9]: 57 µmol/kg

Cl.O=C1NC(=O)[C@@H]2C[C@@H](O)CN2C1c1cccc(C(F)(F)F)c1 (mixture of isomers)
Activity [10]: Toxic
Activity [11]: Non-toxic
Activity [12]: inactive
Activity [13]: Non-toxic
Activity [14]: inactive
Activity [15]: inactive
Activity [16]: Non-toxic
Activity [17]: inactive
Activity [18]: Active
Activity [19]: Non-toxic
Activity [20]: Non-toxic
Activity [21]: Non-toxic
Activity [22]: inactive
Activity [23]: Non-toxic
Activity [24]: inactive
Activity [25]: Toxic
Activity [26]: Active
Activity [27]: Non-toxic
Activity [28]: inactive
Activity [29]: inactive
Activity [30]: inactive
Activity [31]: inactive
Activity [32]: Non-toxic
Activity [33]: inactive
Activity [34]: Non-toxic
Activity [35]: Non-toxic
Activity [36]: Non-toxic
Activity [37]: inactive
